Results as given in US20030153551A1, “Method for treating ocular neovascular diseases” (priority 2002, published 2003).

Columns and labels:
[1] = test system: endothelial cells of mature vessels; test: Effect on mature retinal vessels of adult mice, lectin staining with image analysis; format: in vivo, Adult C57BL6J mice; conditions: 600 mg/kg by gavage once a day, 5 days
Experimental: After 5 days of treatment, the mice are sacrificed, eyes are rapidly removed and frozen in optimum cutting temperature embedding compound (OCT; Miles Diagnostics, Elkhart, Ind.) or fixed in 10% phosphate-buffered formalin and embedded in paraffin. Adult C57BL6J mice are also treated by gavage with the drug or vehicle and after 5 days, they are sacrificed and their eyes are processed for frozen or paraffin sections.

[2] = test system: retinal vascular development; test: Retinal vascular development in neonatal mice, fluorescein-dextran perfused retinal flat mounts; format: in vivo, newborn C57/BL6J mice; conditions: daily subcutaneous 100 mg/kg
Experimental: Litters of newborn C57/BL6J mice (neonatal mice) are divided into treatment and control groups which received daily subcutaneous injections of 100 mg/kg of the drug or vehicle, respectively. At 7 or 10 days of age, the mice are anesthetized with ether, and perfused with 1 ml of phosphate-buffered saline containing 50 mg/ml of fluorescein-labeled dextran (2×10^6 average mw, Sigma, St. Louis, Mo.) as described by Tobe et al., Evolution of Neovascularization in Mice with Overexpression of VEGF in Photoreceptors, Invest. Ophthalmol. Vis. Sci. 39, 180-188 (1998). The eyes are removed and fixed for 1 hour in 10% phosphate-buffered formalin. The cornea and lens are removed and the entire retina is carefully dissected from the eyecup. Radially cuts are made from the edge of the retina to the equator in all 4 quadrants, and the retina is flat-mounted in Aquamount with photoreceptors facing upward. […] Image-Pro™ Plus is used to measure the distance from the center of the optic nerve to the leading front of developing retinal vessels in each quadrant and the mean is used as a single experimental value.

[3] = test system: retinal neovascularization; test: Oxygen-induced ischemic retinopathy in mice, lectin staining of retinal endothelial cells with image analysis; format: in vivo, C57/BL6J mice
Experimental: Ophthalmol. Vis. […] Vehicle (1% DMSO) or vehicle containing various concentrations of the drug (volume=10 μl per gram body weight) is placed in the stomach by gavage.
Some slides are counterstained with hematoxyln and all were mounted with Cytoseal.

[4] = test system: choroidal neovascularization; test: Laser-induced choroidal neovascularization in mice, lectin staining with integrated area measurement; format: in vivo, C57BL/6J mice; conditions: 400 mg/kg/day orally by gavage
Experimental: C57BL/6J mice are treated in accordance with the Association for Research in Vision and Ophthalmology resolution for the treatment of animals. […] J Path, in press. Briefly, 4 to 5 week old male C57BL/6J mice are anesthetized with ketamine hydrochloride (100 mg/kg body weight) and the pupils are dilated with 1% tropicamide. Three burns of krypton laser photocoagulation (100 μm spot size, 0.1 seconds duration, 150 mW) are delivered to each retina using the slit lamp delivery system of a Coherent Model 920 Photocoagulator and a hand held cover slide as a contact lens. Burns are performed in the 9, 12, and 3 o'clock positions of the posterior pole of the retina. Production of a bubble at the time of laser, which indicates rupture of Bruch's membrane, is an important factor in obtaining CNV, so only mice in which a bubble is produced for all three burns are included. […] After 14 days, the mice are killed with an overdose of pentobarbital sodium, and their eyes are rapidly removed and frozen in optimal cutting temperature embedding compound (OCT). […] Slides are rinsed with 0.05M TBS and incubated 2 hours at 37° C. with biotinylated lectin. […] After a 10 minute incubation in 0.05 M Tris buffer, pH 7.6, slides are developed in Histomark Red (Kirkegaard and Perry) to give a red reaction product, and mounted with Cytoseal (Stephens Scientific, Riverdale, N.J.). Some slides are counterstained with Contrast Blue (Kirkegaard and Perry).
For each lesion, area measurements are made for all sections on which some of the lesion appeared and added together to give the integrated area measurement. Values are averaged to give one experimental value per mouse. A 2-sample t-test for unequal variances is performed to compare the log mean integrated area between treatment and control mice.

`CO[C@@H]1[C@H](N(C)C(=O)c2ccccc2)C[C@H]2O[C@]1(C)n1c3ccccc3c3c4c(c5c6ccccc6n2c5c31)C(=O)NC4` [NBS, N-benzoyl-staurosporine] was tested, and the “total area of endothelial staining in the retina or appearance of retinal vessels compared to vehicle-treated mice” value [1] was “no difference”, the “toxicity to endothelial cells of mature vessels” value [1] was “not toxic” and the “difference in distance from the optic nerve to the vascular front between treated and control mice” value ([2]; at 7 and 10 days of age) was “statistically significant”. For the same molecule, the “extent of retinal vessels toward the periphery” value ([2]; at 7 days of age) was “only extend slightly more than halfway to the periphery”, the “extent of superficial capillary bed” value ([2]; at 10 days of age) was “has not yet reached the edge of the retina” and the “endothelial cell staining on and in the retinas by image analysis versus vehicle-treated mice” value ([3]; 60 mg/kg once a day) was “significantly less”. The “clumps of neovascularization on the surface of the retina versus vehicle-treated control mice” value ([3]; 60 mg/kg twice a day, gavage) was “less than clumps in the retina of the vehicle-treated control mice”, the “clumps of neovascularization on the surface of the retina versus vehicle-treated control mice” value ([3]; 300 mg/kg twice a day, gavage) was “less than clumps in the retina of the vehicle-treated control mice” and the “endothelial cell staining on and in the retinas by image analysis versus vehicle-treated mice” value ([3]; 600 mg/kg once a day) was “significantly less”. The “endothelial cell staining on the surface and within the retina compared to vehicle-treated mice” value ([3]; 600 mg/kg once a day for 5 days, gavage) was “dramatic decrease”, the “integrated area of lectin staining per lesion” value ([4]; 14 days after laser, vehicle 0.0695621±0.0073960 mm^2, p=0.004) was 0.009018±0.001754 mm^2 and the “appearance of overlying retinal vessels in eyes of treated mice” value ([4]; two weeks after laser) was “appear normal”. For the same molecule, the “choroidal neovascularization at the site of each laser-induced rupture of Bruch's membrane” value ([4]; two weeks after laser) was “very little if any choroidal neovascularization”.
